Source: publication PMC4215984, “Structure of a Diguanylate Cyclase from Thermotoga maritima: Insights into Activation, Feedback Inhibition and Thermostability” (PLoS ONE, 2014)

Tests used:
[1] = target: T1, tDGC (GGDEF domain of TM1788) (Thermotoga maritima, UniProt Q9X2A8); test: X-ray crystallography; type: binding; details: feedback-inhibitory I-site (158-RxxD-161, secondary R115); co-purified ligand; inactive dimer crystals pH 6.5 (2.27 Å), active-like dimer crystals pH 4.0 (1.9 Å)
T1 construct: gene TM_1788; GGDEF domain, residues 82-248 of 248, N-terminal His6 tag, pET28b (salt-bridge mutants in pET22b), E. coli BL21(DE3); dimer with c-di-GMP, monomer without nucleotide
T1 sequence (Q9X2A8 entry or part of it): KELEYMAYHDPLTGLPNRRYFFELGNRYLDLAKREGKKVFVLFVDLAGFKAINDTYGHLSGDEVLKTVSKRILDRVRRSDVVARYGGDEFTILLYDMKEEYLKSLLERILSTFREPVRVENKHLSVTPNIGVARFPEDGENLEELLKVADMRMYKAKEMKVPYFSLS

RocR = target: T2, RocR (Pseudomonas aeruginosa, UniProt Q9HX69); test: hydrolysis of tDGC-bound c-di-GMP to pGpG, gel filtration and mass spectrometry; type: biochemical; details: 25 mM Tris-HCl, 300 mM NaCl, 5% glycerol, 10 mM MgCl2, 2 h, room temperature
T2 construct: recombinant RocR phosphodiesterase, expressed and purified as in cited earlier work
T2 sequence (Q9HX69 whole entry): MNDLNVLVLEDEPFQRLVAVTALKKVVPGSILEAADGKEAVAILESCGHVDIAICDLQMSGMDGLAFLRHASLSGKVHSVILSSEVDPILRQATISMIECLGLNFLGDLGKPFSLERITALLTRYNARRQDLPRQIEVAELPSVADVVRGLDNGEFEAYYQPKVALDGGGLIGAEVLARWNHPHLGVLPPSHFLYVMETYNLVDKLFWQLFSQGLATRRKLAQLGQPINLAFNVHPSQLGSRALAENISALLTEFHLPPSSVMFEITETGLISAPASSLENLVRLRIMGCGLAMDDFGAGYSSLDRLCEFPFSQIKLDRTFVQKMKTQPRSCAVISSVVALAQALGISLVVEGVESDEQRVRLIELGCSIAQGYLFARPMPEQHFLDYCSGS

[2] = target: T3, tDGC (GGDEF domain of TM1788) (Thermotoga maritima, UniProt Q9X2A8, D177A); test: gel filtration; type: binding; details: I-site; co-purified ligand
T3 construct: gene TM_1788; GGDEF domain, residues 82-248 of 248, N-terminal His6 tag, pET28b (salt-bridge mutants in pET22b), E. coli BL21(DE3); dimer with c-di-GMP, monomer without nucleotide
T3 sequence (Q9X2A8 entry or part of it D177A): as the sequence (Q9X2A8 entry or part of it) above, with D96A counted along it

[3] = target: T4, tDGC (GGDEF domain of TM1788) (Thermotoga maritima, UniProt Q9X2A8, E196A); test: gel filtration; type: binding; details: I-site; co-purified ligand
T4 construct: gene TM_1788; GGDEF domain, residues 82-248 of 248, N-terminal His6 tag, pET28b (salt-bridge mutants in pET22b), E. coli BL21(DE3); dimer with c-di-GMP, monomer without nucleotide
T4 sequence (Q9X2A8 entry or part of it E196A): as the sequence (Q9X2A8 entry or part of it) above, with E115A counted along it

[4] = target: T1, tDGC (GGDEF domain of TM1788); test: thermal unfolding by circular dichroism at […] nm; type: binding; details: 20 mM Tris-HCl pH 8.5, 250 mM NaCl, 5% glycerol, 10 mM MgCl2, 0.8 mg/ml; co-purified ligand at I-site
[5] = target: T5, tDGC (GGDEF domain of TM1788) (Thermotoga maritima, UniProt Q9X2A8, R233A); test: gel filtration; type: binding; details: I-site; co-purified ligand
T5 construct: gene TM_1788; GGDEF domain, residues 82-248 of 248, N-terminal His6 tag, pET28b (salt-bridge mutants in pET22b), E. coli BL21(DE3); dimer with c-di-GMP, monomer without nucleotide
T5 sequence (Q9X2A8 entry or part of it R233A): as the sequence (Q9X2A8 entry or part of it) above, with R152A counted along it

SMILES: Nc1nc2c(ncn2[C@@H]2O[C@@H]3COP(=O)(O)O[C@H]4[C@@H](O)[C@H](n5cnc6c(=O)[nH]c(N)nc65)O[C@@H]4COP(=O)(O)O[C@H]3[C@H]2O)c(=O)[nH]1 [c-di-GMP]
- structure [1]: The wild type tDGC protein co-purifies with c-di-GMP and co-crystallizes without any extraneous addition of ligand
- hydrolysis of tDGC-bound c-di-GMP to pGpG, gel filtration and mass spectrometry (RocR): Following incubation of the wild type tDGC bound to c-di-GMP with RocR
- gel filtration [2]: The three mutants eluted as dimers in gel filtration, indicating that c-di-GMP is bound
- gel filtration [3]: The three mutants eluted as dimers in gel filtration, indicating that c-di-GMP is bound
- Tm (c-di-GMP-bound dimer; nucleotide-free monomer 85.5) [4]: 85.0 °C
- gel filtration [5]: The three mutants eluted as dimers in gel filtration, indicating that c-di-GMP is bound
